Reference: US6506876B1, “LTA4 hydrolase inhibitor pharmaceutical compositions and methods of use” (G.D. Searle & Co., priority 1994, dated 2003)
pIC50: −log10 of the molar value.

test system: LTB4 production in mouse blood (LTA4 hydrolase); assay: Ex vivo LTB4 production by calcium ionophore stimulated mouse blood after oral dosing; format: in vivo; conditions: Mus musculus, po, 1 h, read-out: Murine Ex Vivo LTB4 Inhibition % I LTB4
Procedure: Ex Vivo LTB4 and Thromboxane Production by Calcium Ionophore Stimulated Mouse Blood for LTA4 Hydrolase Inhibitor Activity
Leukotriene A4 hydrolase inhibitor compounds of the present invention were diluted to a predetermined concentration in phosphate buffered saline containing 2% DMSO and 1% Tween 80. The compounds were administered by oral gavage to adult male outbred mice weighing approximately 20-30 gm at a dose of 10 mg/kg body weight. (Compounds given at a dose of 50 mg/kg body weight are designtated in following Table by the symbol, *.) Sixty (60) minutes after administration of an LTA4 inhibitor compound of the invention, blood was collected (into heparin-containing tubes) from the retroorbital sinus. […] The mixture was incubated for 10 minutes at 37° C. in a humidified incubator. The reaction was terminated by centrifugation (833 g, 10 minutes at 4° C.). Supernatants were analyzed for LTB4 and thromboxane by commercially available enzyme-linked immunoassays (Caymen Chemical Co., Ann Arbor, Mich.] in accordance with the manufacturer's instructions. The percent inhibition was determined by comparison to animals treated identically except that the solution admininstered by oral gavage was devoid of inhibitor compound.

Row | Compound | inhibition in vivo at 10 mg/kg [%]
1 | c1ccc(Cc2ccc(OCCn3cnc4ncncc43)cc2)cc1 [357 A] | 57
2 | Fc1ccc(Oc2ccc(OCCN3CCCC3)cc2)cc1 [Example 48, 1-[2-[4-(4-fluorophenoxy)phenoxy]ethyl]pyrrolidine] | 13

same assay, conditions: mouse, oral gavage, 1 hour after administration of 10 mg/kg; read-out: Murine Ex Vivo LTB4 Inhibition % I LTB4

Row | Compound | inhibition in vivo at 10 mg/kg [%]
3 | c1ccc(Oc2ccc(OCCn3cnc4ccncc43)cc2)cc1 [349 A] | 78.5
4 | c1ccc(Oc2ccc(OCCn3cnc4cnccc43)cc2)cc1 [349 B] | 48
5 | c1ccc(Oc2ccc(OCCn3ccc4ncnc-4c3)cc2)cc1 [349 C] | 52
6 | c1ccc(Oc2ccc(OCCCn3cnc4ncccc43)cc2)cc1 [350 B] | 38
7 | c1ccc(Oc2ccc(OCCCn3cccc4ncnc3-4)cc2)cc1 [350 C] | 35
8 | c1ccc(Oc2ccc(OCCCn3ccc4ncnc-4c3)cc2)cc1 [351 C] | 42
9 | Fc1ccc(Oc2ccc(OCCn3cnc4ncccc43)cc2)cc1 [354 B] | 32
10 | Fc1ccc(Oc2ccc(OCCn3cccc4ncnc3-4)cc2)cc1 [354 C] | 6
11 | Fc1ccc(Oc2ccc(OCCn3cnc4ccncc43)cc2)cc1 [355 A] | 44
12 | Fc1ccc(Oc2ccc(OCCn3cnc4cnccc43)cc2)cc1 [355 B] | 37
13 | Fc1ccc(Oc2ccc(OCCn3ccc4ncnc-4c3)cc2)cc1 [355 C] | 48
14 | c1ccc(Cc2ccc(OCCCn3cnc4ccncc43)cc2)cc1 [356 A] | 14
15 | c1ccc(Cc2ccc(OCCCn3cnc4cnccc43)cc2)cc1 [356 B] | 33
16 | c1ccc(Cc2ccc(OCCCn3ccc4ncnc-4c3)cc2)cc1 [356 C] | 48
17 | c1ccc2ncc(Cc3ccc(OCCN4CCCC4)cc3)cc2c1 [Example 132] | 83
18 | c1csc(Cc2ccc(OCCN3CCCC3)cc2)c1 [Example 133] | 49
19 | Oc1ccc(Cc2ccc(OCCN3CCCC3)cc2)cc1 [Example 137] | 38
20 | c1ccc(Cc2ccc(OCCN3CCCC3)cc2)nc1 [Example 138] | 21
21 | Fc1ccc(Cc2ccc(OCCN3CCCC3)cc2)cc1 [Example 139] | 9
22 | Fc1cccc(Cc2ccc(OCCN3CCCC3)cc2)c1 [Example 142] | 32
23 | NC(=O)C1CCN(CCOc2ccc(Cc3ccccc3)cn2)CC1 [Example 147] | 94
24 | Clc1ccccc1COc1ccc(OCCN2CCCC2)cc1 [Example 208] | 13

Row | Compound | inhibition in vivo at 10 mg/kg [%]
25 | FC(F)(F)c1cccc(COc2ccc(OCCN3CCCC3)cc2)c1 [Example 209] | 0
26 | NC(=O)C1CCN(CCOc2ccc(Cc3cccs3)cc2)CC1 [Example 229] | 70
27 | NC(=O)C1CCN(CCOc2ccc(Cc3ccsc3)cc2)CC1 [Example 230] | 53
28 | NC(=O)C1CCN(CCOc2ccc(Cc3cccc(F)c3)cc2)CC1 [Example 233] | 98
29 | c1ccc(Cc2ccc(OCCNC3CCCCC3)cc2)cc1 [Example 240] | 33
30 | c1ccc(Cc2ccc(OCCNC3CCCC3)cc2)cc1 [Example 241] | 33
31 | OC1CCN(CCOc2ccc(Cc3ccccc3)cc2)CC1 [Example 247] | 70
32 | O=C(NC1CCN(CCOc2ccc(Cc3ccccc3)cc2)CC1)c1cc2ccccc2o1 [Example 248] | 56
33 | NC(=O)C1CCN(CCOc2ccc(Oc3ccccc3)cc2)CC1 [Example 252] | 94
34 | NC(=O)C1CCCN(CCOc2ccc(Oc3ccccc3)cc2)C1 (stereo not shown) [Example 253] | 73
35 | CCOC(=O)C1CCN(CCOc2ccc(Oc3ccccc3)cc2)CC1 [Example 254] | 87
36 | COC(=O)C1CN(CCCOc2ccc(Cc3ccccc3)cc2)CCC1=O (stereo not shown) [Example 262] | 52
37 | CC(C)(C)OC(=O)C1CCN(CCCOc2ccc(Cc3ccccc3)cc2)CC1 [Example 263] | 60
38 | O=C(CCNCCOc1ccc(Cc2ccccc2)cc1)OCc1ccccc1 [Example 266] | 29
39 | CCOC(=O)C1CCCN(CCCOc2ccc(Cc3ccccc3)cc2)C1 (stereo not shown) [Example 269] | 50
40 | O=C(CCNCCCCOc1ccc(Cc2ccccc2)cc1)OCc1ccccc1 [Example 273] | 100
41 | c1ccc(Cc2ccc3c(c2)CC(CN2CCCC2)O3)cc1 (stereo not shown) [Example 280] | 33
42 | CCOC(=O)C1CCN(CC2Cc3cc(Cc4ccccc4)ccc3O2)CC1 (stereo not shown) [Example 282] | 57
43 | NC(=O)C1CCN(CC2Cc3cc(Cc4ccccc4)cnc3O2)CC1 (stereo not shown) [Example 288] | 0
44 | NC(=O)C1CCN(CC2Cc3cc(Oc4ccccc4)ccc3O2)CC1 (stereo not shown) [Example 290] | 94
45 | CCOC(=O)C1CCN(CC2Cc3cc(Oc4ccccc4)ccc3O2)CC1 (stereo not shown) [Example 291] | 67

same assay, conditions: mouse, oral gavage, 1 hour after administration of 50 mg/kg (*); read-out: Murine Ex Vivo LTB4 Inhibition % I LTB4

Row | Compound | inhibition in vivo at 50 mg/kg [%]
46 | Fc1cccc(COc2ccc(OCCN3CCCC3)cc2)c1 [Example 211] | 47
47 | c1csc(COc2ccc(OCCN3CCCC3)cc2)c1 [Example 215] | 33
48 | O=C(OCc1ccccc1)C1CCCN1CCCOc1ccc(Cc2ccccc2)cc1 (stereo not shown) [Example 258] | 81
49 | c1ccc(Cc2ccc(OCCCN3CCCC3)cc2)cc1 [Example 259] | 35
50 | COC(=O)CCNCCCOc1ccc(Cc2ccccc2)cc1 [Example 267] | 100

target: T1, recombinant human LTA4 hydrolase (rhLTA4H) (Homo sapiens, UniProt P09960); assay: Recombinant human LTA4 hydrolase assay for LTA4 hydrolase inhibitor activity; conditions: Recombinant Human LTA4 Hydrolase Assay IC50 LTA4H
T1 sequence (P09960 1-611): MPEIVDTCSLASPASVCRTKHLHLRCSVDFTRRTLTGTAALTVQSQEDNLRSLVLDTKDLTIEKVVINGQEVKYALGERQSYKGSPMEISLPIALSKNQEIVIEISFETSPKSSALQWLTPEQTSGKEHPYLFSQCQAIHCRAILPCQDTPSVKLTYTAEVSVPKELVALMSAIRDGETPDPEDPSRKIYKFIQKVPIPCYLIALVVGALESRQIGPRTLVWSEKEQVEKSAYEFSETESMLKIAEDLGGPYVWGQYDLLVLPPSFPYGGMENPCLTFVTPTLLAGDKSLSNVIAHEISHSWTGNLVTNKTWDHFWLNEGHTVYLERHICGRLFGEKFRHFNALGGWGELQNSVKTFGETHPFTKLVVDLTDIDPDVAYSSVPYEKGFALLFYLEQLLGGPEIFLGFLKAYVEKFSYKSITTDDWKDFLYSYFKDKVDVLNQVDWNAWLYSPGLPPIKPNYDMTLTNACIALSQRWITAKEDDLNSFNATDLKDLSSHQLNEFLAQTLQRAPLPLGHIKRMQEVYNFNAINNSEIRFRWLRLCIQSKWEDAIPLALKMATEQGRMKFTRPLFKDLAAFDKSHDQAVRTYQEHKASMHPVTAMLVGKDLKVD

Row | Compound | pIC50
51 | c1ccc(Cc2ccc(OCCn3cnc4ncncc43)cc2)cc1 [357 A] | 7.33

same assay, conditions: Recombinant Human LTA4 Hydrolase Assay IC50 LTA4H, recombinant hLTA4H

Row | Compound | pIC50
52 | c1ccc(Oc2ccc(OCCn3cnc4ccncc43)cc2)cc1 [349 A] | 6.32
53 | c1ccc(Oc2ccc(OCCn3cnc4cnccc43)cc2)cc1 [349 B] | 6.52
54 | c1ccc(Oc2ccc(OCCn3ccc4ncnc-4c3)cc2)cc1 [349 C] | 7.89
55 | c1ccc(Oc2ccc(OCCCn3cnc4ncccc43)cc2)cc1 [350 B] | 6.26
56 | c1ccc(Oc2ccc(OCCCn3cccc4ncnc3-4)cc2)cc1 [350 C] | 6.21
57 | c1ccc(Oc2ccc(OCCCn3ccc4ncnc-4c3)cc2)cc1 [351 C] | 7.37
58 | Fc1ccc(Oc2ccc(OCCn3cnc4ncccc43)cc2)cc1 [354 B] | 6.55
59 | Fc1ccc(Oc2ccc(OCCn3cccc4ncnc3-4)cc2)cc1 [354 C] | 6.32
60 | Fc1ccc(Oc2ccc(OCCn3cnc4ccncc43)cc2)cc1 [355 A] | 5.86
61 | Fc1ccc(Oc2ccc(OCCn3cnc4cnccc43)cc2)cc1 [355 B] | 6.06
62 | Fc1ccc(Oc2ccc(OCCn3ccc4ncnc-4c3)cc2)cc1 [355 C] | 7.55
63 | c1ccc(Cc2ccc(OCCCn3cnc4ccncc43)cc2)cc1 [356 A] | 6.46
64 | c1ccc(Cc2ccc(OCCCn3cnc4cnccc43)cc2)cc1 [356 B] | 6.77
65 | c1ccc(Cc2ccc(OCCCn3ccc4ncnc-4c3)cc2)cc1 [356 C] | 7.00
66 | Fc1ccc(Oc2ccc(OCCN3CCCC3)cc2)cc1 [Example 48, 1-[2-[4-(4-fluorophenoxy)phenoxy]ethyl]pyrrolidine] | 6.82
67 | c1ccc2ncc(Cc3ccc(OCCN4CCCC4)cc3)cc2c1 [Example 132] | 7.08
68 | c1csc(Cc2ccc(OCCN3CCCC3)cc2)c1 [Example 133] | 8.00
69 | Oc1ccc(Cc2ccc(OCCN3CCCC3)cc2)cc1 [Example 137] | 7.52
70 | c1ccc(Cc2ccc(OCCN3CCCC3)cc2)nc1 [Example 138] | 6.38
71 | Fc1ccc(Cc2ccc(OCCN3CCCC3)cc2)cc1 [Example 139] | 6.96
72 | Fc1cccc(Cc2ccc(OCCN3CCCC3)cc2)c1 [Example 142] | 7.43
73 | NC(=O)C1CCN(CCOc2ccc(Cc3ccccc3)cn2)CC1 [Example 147] | 5.97
74 | Clc1ccccc1COc1ccc(OCCN2CCCC2)cc1 [Example 208] | 5.40
75 | FC(F)(F)c1cccc(COc2ccc(OCCN3CCCC3)cc2)c1 [Example 209] | 5.52
76 | Fc1cccc(COc2ccc(OCCN3CCCC3)cc2)c1 [Example 211] | 6.92

Row | Compound | pIC50
77 | c1csc(COc2ccc(OCCN3CCCC3)cc2)c1 [Example 215] | 7.07
78 | NC(=O)C1CCN(CCOc2ccc(Cc3cccs3)cc2)CC1 [Example 229] | 6.62
79 | NC(=O)C1CCN(CCOc2ccc(Cc3ccsc3)cc2)CC1 [Example 230] | 6.41
80 | NC(=O)C1CCN(CCOc2ccc(Cc3cccc(F)c3)cc2)CC1 [Example 233] | 6.43
81 | c1ccc(Cc2ccc(OCCNC3CCCCC3)cc2)cc1 [Example 240] | 5.97
82 | c1ccc(Cc2ccc(OCCNC3CCCC3)cc2)cc1 [Example 241] | 6.22
83 | OC1CCN(CCOc2ccc(Cc3ccccc3)cc2)CC1 [Example 247] | 7.00
84 | O=C(NC1CCN(CCOc2ccc(Cc3ccccc3)cc2)CC1)c1cc2ccccc2o1 [Example 248] | 6.70
85 | NC(=O)C1CCN(CCOc2ccc(Oc3ccccc3)cc2)CC1 [Example 252] | 6.80
86 | NC(=O)C1CCCN(CCOc2ccc(Oc3ccccc3)cc2)C1 (stereo not shown) [Example 253] | 6.04
87 | CCOC(=O)C1CCN(CCOc2ccc(Oc3ccccc3)cc2)CC1 [Example 254] | 5.22
88 | O=C(OCc1ccccc1)C1CCCN1CCCOc1ccc(Cc2ccccc2)cc1 (stereo not shown) [Example 258] | 5.90
89 | c1ccc(Cc2ccc(OCCCN3CCCC3)cc2)cc1 [Example 259] | 7.00
90 | COC(=O)C1CN(CCCOc2ccc(Cc3ccccc3)cc2)CCC1=O (stereo not shown) [Example 262] | 6.66
91 | CC(C)(C)OC(=O)C1CCN(CCCOc2ccc(Cc3ccccc3)cc2)CC1 [Example 263] | 5.35
92 | O=C(CCNCCOc1ccc(Cc2ccccc2)cc1)OCc1ccccc1 [Example 266] | 5.19
93 | COC(=O)CCNCCCOc1ccc(Cc2ccccc2)cc1 [Example 267] | 6.77
94 | CCOC(=O)C1CCCN(CCCOc2ccc(Cc3ccccc3)cc2)C1 (stereo not shown) [Example 269] | 5.56
95 | O=C(CCNCCCCOc1ccc(Cc2ccccc2)cc1)OCc1ccccc1 [Example 273] | 6.21
96 | c1ccc(Cc2ccc3c(c2)CC(CN2CCCC2)O3)cc1 (stereo not shown) [Example 280] | 7.96
97 | CCOC(=O)C1CCN(CC2Cc3cc(Cc4ccccc4)ccc3O2)CC1 (stereo not shown) [Example 282] | 5.43
98 | NC(=O)C1CCN(CC2Cc3cc(Cc4ccccc4)cnc3O2)CC1 (stereo not shown) [Example 288] | 6.15
99 | NC(=O)C1CCN(CC2Cc3cc(Oc4ccccc4)ccc3O2)CC1 (stereo not shown) [Example 290] | 6.35
100 | CCOC(=O)C1CCN(CC2Cc3cc(Oc4ccccc4)ccc3O2)CC1 (stereo not shown) [Example 291] | 5.10
